Marks after values point to notes of the source that are not given here.
Experiment: Mean marker change from baseline after treatment (TU, TT 14-day, TD single dose, TU depot injection, topical T after 7 days)
Type: in vivo
Settings: for Cmax to mean Cave ratio: range calculated from the average low and average high for the 5 arms tested
From the text: The mean marker change from baseline in the foregoing tables can be measured at various times including: hours after treatment commences, 7 to 14 days after treatment commences, and during treatment.
A-E are all the 14-day timepoint
TU Depot Injection—after Single Dose

CCCCCCCCCCCCC(=O)O[C@H]1CC[C@H]2[C@@H]3CCC4=CC(=O)CC[C@]4(C)[C@H]3CC[C@]12C [TT, testosterone tridecanoate]
Mean marker change from baseline in serum (e.g. IL-2, IL-6, TNF-Alpha, CRP, SHBG, MCP-1, AST, ALT, ALP) (total daily TT dose 300 mg): −5% to −35% | Cmax to mean Cave ratio (total daily TT dose 300 mg): 1.72-3.08* | Mean marker change from baseline in serum (e.g. IL-2, IL-6, TNF-Alpha, CRP, SHBG, MCP-1, AST, ALT, ALP) (total daily TT dose 2700 mg): −5% to −35% | Cmax to mean Cave ratio (total daily TT dose 2700 mg): 1.72-3.09*

Source: US20210361673A1, “COMPOSITIONS AND METHODS OF TREATING VIRAL INFECTIONS” (Lipocine Inc., priority 2020, published 2021)
